Reference: patent US10202360B2 (CELGENE QUANTICEL RESEARCH, INC., priority 2016, dated 2019)
pIC50: −log10 of the molar value.

Molecular target: CREBBP (Homo sapiens (Human), UniProt Q92793)
Test: In vitro enzyme inhibition assay - CREBBP inhibition (AlphaScreen, biotinylated H4-tetraacetyl peptide)
Format: binding
Details: Table 28; AlphaScreen, H4-tetraacetyl peptide
How it was run: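 His-tagged CREBBP expressed in E. coli (50 nM final) incubated with biotinylated H4K5/8/12/16(Ac) peptide (20 nM final) in HEPES pH 7.3 buffer, 0.4% DMSO, 20 min at room temperature.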

CREBBP, sequence (Q92793 1081-1197): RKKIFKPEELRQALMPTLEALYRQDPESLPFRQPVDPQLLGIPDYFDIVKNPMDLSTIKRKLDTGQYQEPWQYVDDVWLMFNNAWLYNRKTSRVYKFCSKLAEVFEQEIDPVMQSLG

| SMILES | pIC50 |
| --- | --- |
| Cc1cc(-c2cc(NS(=O)(=O)C(C)C)nc(Oc3ccccc3)n2)cn(C)c1=O [Example 69, N-(6-(1,5-dimethyl-6-oxo 1,6-dihydropyridin-3-yl)-2-phenoxypyrimidin-4-yl)propane-2-sulfonamide] | > 6.30 |
| CCCCS(=O)(=O)Nc1cc(-c2cc(C)c(=O)n(C)c2)nc(Oc2cc(C(C)C)ccc2Cl)n1 [Example 38, Butane-1-sulfonic acid [2-(2-chloro-5-isopropyl-phenoxy)-6-(1,5-dimethyl-6-oxo-1,6-dihydro-pyridin-3-yl)-pyrimidin-4-yl]-amide] | > 6.30 |
| CCCCS(=O)(=O)Nc1cc(-c2cn(C)c(=O)c3ccccc23)nc(Oc2c(C)cccc2C)n1 [Example 97, Butane-1-sulfonic acid [2-(2,6-dimethyl-phenoxy)-6-(2-methyl-1-oxo-1,2-dihydro-isoquinolin-4-yl)-pyrimidin-4-yl]-amide] | 5.30 to 6.30 |
| Cc1cccc(C#N)c1Oc1nc(NS(=O)(=O)C(C)C)cc(-c2ccc(=O)n(C)c2)n1 [Example 110, Propane-2-sulfonic acid [2-(2-cyano-6-methyl-phenoxy)-6-(1-methyl-6-oxo-1,6-dihydro-pyridin-3-yl)-pyrimidin-4-yl]-amide] | > 6.30 |
| Cc1cc(Cl)cc(Cl)c1Oc1nc(NS(=O)(=O)C(C)C)cc(-c2ccc(=O)n(C)c2)n1 [Example 34, Propane-2-sulfonic acid [2-(2,4-dichloro-6-methyl-phenoxy)-6-(1-methyl-6-oxo-1,6-dihydro-pyridin-3-yl)-pyrimidin-4-yl]-amide] | > 6.30 |
| Cc1cc(-c2cc(CS(=O)(=O)C(C)C)nc(Oc3ccc(F)cc3F)n2)cn(C)c1=O [Example 95, 5-[2-(2,4-Difluoro-phenoxy)-6-(propane-2-sulfonylmethyl)-pyrimidin-4-yl]-1,3-dimethyl-1H-pyridin-2-one] | > 6.30 |
| COCCS(=O)(=O)Nc1cc(-c2cc(C)c(=O)n(C)c2)nc(Oc2c(C)cccc2C)n1 [Example 78, N-(6-(1,5-dimethyl-6-oxo-1,6-dihydropyridin-3-yl)-2-(2,6-dimethylphenoxy)pyrimidin-4-yl)-2-methoxyethane-1-sulfonamide] | > 6.30 |
| Cc1cc(-c2cc(NS(=O)(=O)C(C)C)nc(Oc3cc(C(C)C)ccc3Cl)n2)cn(C)c1=O [Example 40, Propane-2-sulfonic acid [2-(2-chloro-5-isopropyl-phenoxy)-6-(1,5-dimethyl-6-oxo-1,6-dihydro-pyridin-3-yl)-pyrimidin-4-yl]-amide] | > 6.30 |
| CCCCS(=O)(=O)Nc1cc(-c2cc(C)c(=O)n(C)c2)nc(Oc2ccccc2C#N)n1 [Example 37, Butane-1-sulfonic acid [2-(2-cyano-phenoxy)-6-(1,5-dimethyl-6-oxo-1,6-dihydro-pyridin-3-yl)-pyrimidin-4-yl]-amide] | > 6.30 |
| Cc1cc(-c2cc(NS(=O)(=O)C(C)C)nc(Oc3c(F)cccc3Cl)n2)cn(C)c1=O [Example 142, Propane-2-sulfonic acid [2-(2-chloro-6-fluoro-phenoxy)-6-(1,5-dimethyl-6-oxo-1,6-dihydro-pyridin-3-yl)-pyrimidin-4-yl]-amide] | > 6.30 |
| CCCCS(=O)(=O)Nc1cc(-c2cc(C)c(=O)n(C)c2)nc(Oc2c(C)cccc2C#N)n1 [Example 22, Butane-1-sulfonic acid [2-(2-cyano-6-methyl-phenoxy)-6-(1,5-dimethyl-6-oxo-1,6-dihydro-pyridin-3-yl)-pyrimidin-4-yl]-amide] | > 6.30 |
| CCS(=O)(=O)Nc1cc(-c2cc(C)c(=O)n(C)c2)nc(OCC(F)(F)F)n1 [Example 151, N-(6-(1,5-dimehtyl-6-oxo-1,6-dihydropyridin-3-yl)-2-(2,2,2-trifluoroethoxy)pyrimidin-4-yl)ethanesulfonamide] | > 6.30 |

Further lines, results first:

| pIC50 | SMILES |
| --- | --- |
| > 6.30 | Cc1cccc(F)c1Oc1nc(NS(=O)(=O)CCC(C)C)nc(-c2cc(C)c(=O)n(C)c2)n1 [Example 186, 3-Methyl-butane-1-sulfonic acid [4-(1,5-dimethyl-6-oxo-1,6-dihydro-pyridin-3-yl)-6-(2-fluoro-6-methyl-phenoxy)-[1,3,5]triazin-2-yl]-amide] |
| > 6.30 | CCC[C@H](C)S(=O)(=O)Nc1cc(-c2ccc(=O)n(C)c2)nc(Oc2c(F)ccc(C)c2Cl)n1 [Example 228, (2S)-Pentane-2-sulfonic acid [2-(2-chloro-6-fluoro-3-methyl-phenoxy)-6-(1-methyl-6-oxo-1,6-dihydro-pyridin-3-yl)-pyrimidin-4-yl]-amide] |
| > 6.30 | Cc1cccc(Cl)c1Oc1nc(NC(C)C)cc(-c2ccc(=O)n(C)c2)n1 [Example 283, 5-(2-(2-chloro-6-methylphenoxy)-6-(isopropylamino)pyrimidin-4-yl)-1-methylpyridin-2(1H)-one] |
| > 6.30 | Cc1cccc(F)c1Oc1nc(NS(=O)(=O)CC(C)C)nc(-c2cc(C)c(=O)n(C)c2)n1 [Example 183, 2-Methyl-propane-1-sulfonic acid [4-(1,5-dimethyl-6-oxo-1,6-dihydro-pyridin-3-yl)-6-(2-fluoro-6-methyl-phenoxy)-[1,3,5]triazin-2-yl]-amide] |
| > 6.30 | CCC(F)(F)S(=O)(=O)Nc1cc(-c2ccc(=O)n(C)c2)nc(Oc2c(C)cccc2Cl)n1 [Example 170, 1,1-Difluoro-propane-1-sulfonic acid [2-(2-chloro-6-methyl-phenoxy)-6-(1-methyl-6-oxo-1,6-dihydro-pyridin-3-yl)-pyrimidin-4-yl]-amide] |
| > 6.30 | Cc1cccc(F)c1Oc1nc(NS(=O)(=O)C(C)C)nc(-c2ccc(=O)n(C)c2)n1 [Example 176, Propane-2-sulfonic acid [4-(2-fluoro-6-methyl-phenoxy)-6-(1-methyl-6-oxo-1,6-dihydro-pyridin-3-yl)-[1,3,5]triazin-2-yl]-amide] |
| > 6.30 | Cc1cccc(C#N)c1Oc1nc(N[C@@H](C)c2ccccc2)cc(-c2ccc(=O)n(C)c2)n1 [Example 322, (S)-3-Methyl-2-[4-(1-methyl-6-oxo-1,6-dihydro-pyridin-3-yl)-6-(1-phenyl-ethylamino)-pyrimidin-2-yloxy]-benzonitrile] |
| > 6.30 | COc1nc(NCc2ccccc2)cc(-c2ccc(=O)n(C)c2)n1 [Example 324, 5-(6-Benzylamino-2-methoxy-pyrimidin-4-yl)-1-methyl-1H-pyridin-2-one] |
| > 6.30 | Cc1ccc(CNc2cc(-c3ccc(=O)n(C)c3)nc(Oc3c(C)cccc3F)n2)cn1 [Example 290, 5-(2-(2-fluoro-6-methylphenoxy)-6-(((6-methylpyridin-3-yl)methyl)amino)pyrimidin-4-yl)-1-methylpyridin-2(1H)-one] |
| > 6.30 | CCCCS(=O)(=O)Nc1cc(-c2ccc(=O)n(C)c2)nc(Oc2c(F)ccc(C)c2Cl)n1 [Example 255, Butane-1-sulfonic acid [2-(2-chloro-6-fluoro-3-methyl-phenoxy)-6-(1-methyl-6-oxo-1,6-dihydro-pyridin-3-yl)-pyrimidin-4-yl]-amide] |
| > 6.30 | CCCCS(=O)(=O)Nc1cc(-c2ccc(=O)n(C)c2)nc(Oc2c(F)ccc(C)c2F)n1 [Example 257, Butane-1-sulfonic acid [2-(2,6-difluoro-3-methyl-phenoxy)-6-(1-methyl-6-oxo-1,6-dihydro-pyridin-3-yl)-pyrimidin-4-yl]-amide] |
